{"source": "patent US7943660B2", "about": "“Inhibitors of the LFA-1/ICAM-1 interaction and uses thereof” (Dominion Pharmakine S.L., priority 2005, dated 2011)", "key": {"[1]": {"system": "51b murine colon carcinoma (51b-CC) cell adhesion to HSE cells", "experiment": "51b colon carcinoma cell adhesion to HSE cells", "assay_type": "cell-based", "settings": "51b cells, FIG. 6A", "protocol": "(§1) Time-dependent adhesion assays was carried out on a quantitative basis according to previous validated bioassays (Vidal-Vanaclocha et al., Cancer Research, 1994, 54(10):2667-72). For tumor cell pre-labelling, they were allowed to accumulate the non-fluorescent sterase substrate BCECF-AM and to hydrolyze it to its fluorescent product BCECF which becomes trapped inside living cells. To do this, 50 μg of BCECF-AM were diluted in dry DMSO (5 μl) and DME medium until […] (40 μg/ml).\n(§2) Tumor cells (5×10^6) were incubated in BCECF-AM solution at 37° C. for 30 min. After gently washing, tumor cells were resuspended in fresh medium (DMEM without phenol red) at a concentration of 2×10^6 cells/ml.\n(§3) Twenty-four hours post-plating, primary cultured hepatic sinusoidal endothelial (HSE) cells were also used for adhesion assay. To determine the basal autofluorescence per well, plates were read on a fluorometric microplate reader (Multiskan Ascent, Thermo Labsystems) using 485/22 nm excitation and the 530/25 nm emission filter. Then, 2×10^5 labeled tumor cells were added to each well of HSE cells and to collagen pre-coated control wells.\n(§4) However, in order to determine the exact number of cells in each well, co-culture plates were read for a second time. Then, plates were incubated at 37° C. […]"}, "[2]": {"system": "Co26 murine colon carcinoma (Co26-CC) cell adhesion to HSE cells", "experiment": "Co26 colon carcinoma cell adhesion to HSE cells", "assay_type": "cell-based", "settings": "FIG. 6B", "protocol": "as §1, §2, §3, §4"}, "Co26-CC cells [3]": {"system": "Co26-CC cells", "experiment": "Hepatic metastasis assay (intrasplenic injection of Co26-CC cells)", "assay_type": "in vivo, BALB/c mice", "settings": "Co26-CC cells preincubated with 10 μg/ml HC0303 for 30 min before intrasplenic injection; day 14; vs untreated cells; FIG. 9; P<0.01", "protocol": "Hepatic metastases were produced by the intrasplenic injection into anesthetized male BALB/c mice (6- to 8-weeks old) of 1.5×10^5 viable Co26-CC cells suspended in 0.1 ml Hanks' balanced salt solution. Some cells were incubated with 10 μg/ml compound HC0303 for 30 min prior to their inoculation. Mice were killed by cervical dislocation on the 14th day after the injection of cancer cells. An integrated image analysis system (Olympus Microimage 4.0 capture kit) connected to an Olympus BX51TF microscope was used to quantify the number of foci and their average diameters in serially-cut and hematoxylin/eosin stained hepatic tissue sections.\nDensitometric analysis of digitalized microscopic images was used to distinguish metastatic tissue from normal hepatic tissue. Previously described stereological procedures were employed (cf. Vidal-Vanaclocha et al., Cancer Research, 1994, 54(10):2667-72) and the following parameters were calculated: the liver metastasis density, which was the number of metastases per 100 mm^3 of liver (based on the mean number of foci detected in fifteen 10×10 mm^2 sections per liver) and the liver metastasis volume (mean percentage of liver volume occupied by metastases).\nIn vitro effect of compound HC0303 on in vivo metastatic behavior of cancer cells was tested in Co26-CC cells. […] In addition, the percentage of liver volume occupied by metastases was assessed. […]"}, "[4]": {"system": "B16 melanoma (B16M) cell adhesion to VEGF-induced HSE cells mediated by LFA-1", "experiment": "B16M cell adhesion to VEGF-treated hepatic sinusoidal endothelial (HSE) cells in vitro", "assay_type": "cell-based, murine", "settings": "HSE pre-incubated with 10 μg/ml HC0303 30 min prior to 10 ng/ml rmVEGF for 8 hours; FIG. 5; P<0.001", "protocol": "as §1, §2, §3, §4"}, "Co26-CC cells [5]": {"system": "Co26-CC cells", "experiment": "Viability of Co26-CC cells after in vitro pretreatment", "assay_type": "cell-based, murine", "settings": "in vitro cancer cell pretreatment with HC0303"}, "[6]": {"settings": "100 ng/ml PMA 30 min, then HC0303 20 μg/5×10^5 cells for 30 min, P<0.01"}, "[7]": {"settings": "HC0303 20 μg/5×10^5 cells for 30 min"}}}
{"smiles": "CC[C@H](C)C(OCc1ccccc1)[C@@H]1[C@H]([N+](=O)[O-])[C@H](c2ccccc2)N[C@]1(C)C(=O)NCCC(=O)O", "note": "(stereo partly drawn) [HC0303, 3-[(2S,3R,4S,5S)-3-[(2S)-1-(Benzyloxy)-2-methylbutyl]-2-methyl-4-nitro-5-phenylpyrrolidine-2-carboxamido]propanoic acid]", "values": [{"measurement": "melting point", "value": "104 to 105", "unit": "°C"}, {"measurement": "PMA-induced cancer cell adhesion to HSE cells", "setting": "[1]; [6]", "value": "significantly decreased"}, {"measurement": "adhesion to untreated HSE cells (no PMA)", "setting": "[1]; [7]", "value": "did not affect"}, {"measurement": "PMA-induced cancer cell adhesion to HSE cells", "setting": "[2]; [6]", "value": "significantly decreased"}, {"measurement": "adhesion to untreated HSE cells (no PMA)", "setting": "[2]; [7]", "value": "did not affect"}, {"measurement": "liver metastasis density (number of foci/100 mm^3)", "setting": "Co26-CC cells [3]", "value": "almost abrogated"}, {"measurement": "liver metastasis volume (percentage of liver volume occupied by metastases)", "setting": "Co26-CC cells [3]", "value": "almost abrogated"}, {"measurement": "B16M cell adhesion increase produced in response of VEGF", "setting": "[4]", "value": "abrogated"}, {"measurement": "Cell viability of Co26-CC cells", "setting": "Co26-CC cells [5]", "value": "without Affecting Cell Viability"}]}
